Data: ChEMBL document CHEMBL1125278, “Novel cerebroprotective agents with central nervous system stimulating activity. 2. Synthesis and pharmacology of the 1-(acylamino)-7-hydroxyindan derivatives” (1991)
Several values for one entry are separate records, joined by “and”; a condition that tells them apart may be missing. Equal values may be shown once.

Columns and labels:
Type in all cases: functional
Mus musculus [1] = assay: Spontaneous movement (SMT) in seconds, was measured after oral administration of 30 mg/kg in mice to test for promoting effects on recovery from coma.
Mus musculus [2] = assay: Time of recovery of righting reflux (RRT) in seconds was measured after oral administration of 30 mg/kg in mice for the promotional effect on recovery from coma.
Mus musculus [3] = assay: Antihypoxic effect tested by the ratio of survival time (SVT) of test mice to that of control group, dosed intraperitoneally at 30 mg/kg; details: route intraperitoneal
Mus musculus [4] = assay: Antihypoxic effect tested by the ratio of survival time (SVT) of test mice to that of control group, dosed orally 30 mg/kg; details: route oral
Mus musculus [5] = assay: Time of recovery of spontaneous movement (SMT) in seconds was measured after administration of 10 mg/kg orally in mice for the promotional effect on recovery from coma.; details: route oral
Mus musculus [6] = assay: Time of recovery of righting reflux (RRT) in seconds was measured after oral administration of 100 mg/kg orally in mice for the promotional effect on recovery from coma.
Mus musculus [7] = assay: Time of recovery of righting reflux (RRT) in seconds was measured after oral administration of 10 mg/kg orally in mice for the promotional effect on recovery from coma.
Mus musculus [8] = assay: Time of recovery of righting reflux (RRT) in seconds was measured after oral administration of 30 mg/kg orally in mice for the promotional effect on recovery from coma.
Mus musculus [9] = assay: Time of recovery of spontaneous movement (SMT) in seconds was measured after administration of 100 mg/kg orally in mice for the promotional effect on recovery from coma.; details: route oral
Mus musculus [10] = assay: Antihypoxic effect by the survival time (SVT) in mice at a dose of 3 mg/kg administered intraperitoneally.; details: route intraperitoneal
Mus musculus [11] = assay: Antihypoxic effect by the ratio of survival time (SVT) of test mice to that of control group at a dose of 10 mg/kg administered intraperitoneally.; details: route intraperitoneal
Mus musculus [12] = assay: Compound was tested for the anesthetic effect and the sleeping time (ST) was recorded at a dose of 10 mg/kg administered intraperitoneally.; details: route intraperitoneal
Mus musculus [13] = assay: Compound was tested for the anesthetic effect and the sleeping time (ST) was recorded at a dose of 30 mg/kg administered intraperitoneally.; details: route intraperitoneal
Mus musculus [14] = assay: Compound was tested for the anesthetic effect and the sleeping time (ST) was recorded at a dose of 3 mg/kg administered intraperitoneally.; details: route intraperitoneal
Mus musculus [15] = assay: Time of recovery of righting reflux (RRT) in seconds was measured after intraperitoneal administration of 100 mg/kg in mice for the promotional effect on recovery from coma.
Mus musculus [16] = assay: Time of recovery of righting reflux (RRT) in seconds was measured after intraperitoneal administration of 10 mg/kg in mice for the promotional effect on recovery from coma.
Mus musculus [17] = assay: Time of recovery of righting reflux (RRT) in seconds was measured after intraperitoneal administration of 30 mg/kg in mice for the promotional effect on recovery from coma.
Mus musculus [18] = assay: Antihypoxic effect by the survival time (SVT) in mice at a dose of 100 mg/kg administered intraperitoneally.; details: route intraperitoneal
Mus musculus [19] = assay: Antihypoxic effect by the survival time (SVT) in mice at a dose of 100 mg/kg administered orally.
Mus musculus [20] = assay: Antihypoxic effect by the survival time (SVT) in mice at a dose of 10 mg/kg administered intraperitoneally.; details: route intraperitoneal
Mus musculus [21] = assay: Antihypoxic effect by the survival time (SVT) in mice at a dose of 30 mg/kg administered intraperitoneally.; details: route intraperitoneal
Mus musculus [22] = assay: Time of recovery of spontaneous movement (SMT) in seconds was measured after intraperitoneal administration of 30 mg/kg in mice for the promotional effect on recovery from coma.
Mus musculus [23] = assay: Time of recovery of righting reflux (RRT) in seconds was measured after administration of 100 mg/kg orally in mice for the promotional effect on recovery from coma.; details: route oral

CCC(C)c1cc(C)c2c(c1O)C(NC(=O)CN1CCN(c3cccc(Cl)c3)CC1)CC2 (stereo not given)
SMT (Mus musculus [1]): 81.9 s
RRT (Mus musculus [2]): 90.6 s
SVT (Mus musculus [3]): 224.8%
SVT (Mus musculus [4]): 144.5%

CCC(C)c1cc(C)c2c(c1O)C(NC(=O)CN1CCN(c3cccc(C)c3)CC1)CC2 (stereo not given)
SMT (Mus musculus [1]): 125.1 s
RRT (Mus musculus [2]): 91.9 s
SVT (Mus musculus [3]): 172.2%
SVT (Mus musculus [4]): 110.5%

Cc1cc(C)c2c(c1O)C(NC(=O)CN1CCN(C)CC1)C(C)(C)C2 (stereo not given)
SMT (Mus musculus [5]): 60.9 s
SMT (Mus musculus [1]; 30 mg/kg): 43.1 s and 49.8 s
RRT (Mus musculus [2]): 54.9 s
RRT (Mus musculus [6]): 25.8 s
RRT (Mus musculus [7]): 61.2 s
RRT (Mus musculus [8]): 45.7 s
SMT (Mus musculus [9]): 36.2 s
SVT (Mus musculus [10]): 93%
SVT (Mus musculus [11]): 92.5%
SVT (Mus musculus [3]; 30 mg/kg): 145.6% and 145.2%
SVT (Mus musculus [4]): 86.4%
ST (Mus musculus [12]): 78.8 s
ST (Mus musculus [13]): 84.3 s
ST (Mus musculus [14]): 92.7 s

CCC(C)c1cc(C)c2c(c1O)C(NC(=O)CN1CCN(c3ccccc3)CC1)CC2 (stereo not given)
SMT (Mus musculus [1]): 78.2 s
RRT (Mus musculus [2]): 80.3 s
SVT (Mus musculus [3]): 89.3%
SVT (Mus musculus [4]): 85.9%

Cc1cc(C(C)(C)C)c(O)c(C(C)(C)C)c1 [BUTYLATED HYDROXYTOLUENE]
RRT (Mus musculus [15]): 98.7 s
RRT (Mus musculus [16]): 96.4 s
RRT (Mus musculus [17]): 74.5 s
SVT (Mus musculus [18]): 358.8% and 583.9%
SVT (Mus musculus [19]): 87.6%
SVT (Mus musculus [20]): 140.3%
SVT (Mus musculus [21]): 109.4%
SMT (Mus musculus [9]): 80.9 s
SMT (Mus musculus [22]): 110.4 s and 114.7 s and 115.7 s
RRT (Mus musculus [23]): 69.6 s

Cc1cc(C)c2c(c1O)C(N)C(c1ccccc1)C2 (stereo not given)
SMT (Mus musculus [1]): 28.9 s
RRT (Mus musculus [2]): 34.3 s
SVT (Mus musculus [3]): 185.7%
SVT (Mus musculus [4]): 114.1%

Cc1cc(C)c2c(c1O)C(NC(=O)CCl)CC2 (stereo not given)
SVT (Mus musculus [21]): 116.4%

Cc1cc(C)c2c(c1O)C(NC(=O)CN1CCN(c3cccc(Cl)c3)CC1)C(C)(C)C2 (stereo not given)
SMT (Mus musculus [1]): 128.1 s
RRT (Mus musculus [2]): 88.4 s
SVT (Mus musculus [3]): 456.6%
SVT (Mus musculus [4]): 147.9%
